Activity calls are given as the source filed them.
How the values were obtained:
[1] = target: T1, Heat shock factor protein 1 (Mus musculus, UniProt P38532); experiment: inhibition of MG132-induced HSE-luciferase signal, confirmation, cell-based, NIH3T3, luminescence, dose retest (AID 2382); format: functional;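 also: NIH3T3 fibroblasts with HSF1-driven luciferase reporter stressed by proteasome inhibitor MG132; luminescence from HSF1-driven luciferase expression after 8 hours of MG132 stress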
T1 sequence (P38532 whole entry): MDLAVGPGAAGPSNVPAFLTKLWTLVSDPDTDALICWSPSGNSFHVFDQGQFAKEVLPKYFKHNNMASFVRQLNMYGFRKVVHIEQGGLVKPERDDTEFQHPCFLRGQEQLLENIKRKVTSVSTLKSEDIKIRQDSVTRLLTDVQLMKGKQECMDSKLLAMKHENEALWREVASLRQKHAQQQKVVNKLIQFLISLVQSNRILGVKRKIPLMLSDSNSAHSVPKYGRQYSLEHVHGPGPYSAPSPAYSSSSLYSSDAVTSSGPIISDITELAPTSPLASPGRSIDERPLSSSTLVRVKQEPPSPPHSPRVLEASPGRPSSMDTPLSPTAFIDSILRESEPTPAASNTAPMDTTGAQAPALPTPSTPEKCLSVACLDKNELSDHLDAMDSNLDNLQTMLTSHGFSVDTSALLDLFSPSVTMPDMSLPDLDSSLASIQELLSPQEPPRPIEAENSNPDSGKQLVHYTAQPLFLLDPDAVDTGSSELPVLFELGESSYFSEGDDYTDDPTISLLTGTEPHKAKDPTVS

[2] = target: T2, Histone-lysine N-methyltransferase NSD2 (Homo sapiens, UniProt O96028); format: biochemical
T2 sequence (O96028 whole entry): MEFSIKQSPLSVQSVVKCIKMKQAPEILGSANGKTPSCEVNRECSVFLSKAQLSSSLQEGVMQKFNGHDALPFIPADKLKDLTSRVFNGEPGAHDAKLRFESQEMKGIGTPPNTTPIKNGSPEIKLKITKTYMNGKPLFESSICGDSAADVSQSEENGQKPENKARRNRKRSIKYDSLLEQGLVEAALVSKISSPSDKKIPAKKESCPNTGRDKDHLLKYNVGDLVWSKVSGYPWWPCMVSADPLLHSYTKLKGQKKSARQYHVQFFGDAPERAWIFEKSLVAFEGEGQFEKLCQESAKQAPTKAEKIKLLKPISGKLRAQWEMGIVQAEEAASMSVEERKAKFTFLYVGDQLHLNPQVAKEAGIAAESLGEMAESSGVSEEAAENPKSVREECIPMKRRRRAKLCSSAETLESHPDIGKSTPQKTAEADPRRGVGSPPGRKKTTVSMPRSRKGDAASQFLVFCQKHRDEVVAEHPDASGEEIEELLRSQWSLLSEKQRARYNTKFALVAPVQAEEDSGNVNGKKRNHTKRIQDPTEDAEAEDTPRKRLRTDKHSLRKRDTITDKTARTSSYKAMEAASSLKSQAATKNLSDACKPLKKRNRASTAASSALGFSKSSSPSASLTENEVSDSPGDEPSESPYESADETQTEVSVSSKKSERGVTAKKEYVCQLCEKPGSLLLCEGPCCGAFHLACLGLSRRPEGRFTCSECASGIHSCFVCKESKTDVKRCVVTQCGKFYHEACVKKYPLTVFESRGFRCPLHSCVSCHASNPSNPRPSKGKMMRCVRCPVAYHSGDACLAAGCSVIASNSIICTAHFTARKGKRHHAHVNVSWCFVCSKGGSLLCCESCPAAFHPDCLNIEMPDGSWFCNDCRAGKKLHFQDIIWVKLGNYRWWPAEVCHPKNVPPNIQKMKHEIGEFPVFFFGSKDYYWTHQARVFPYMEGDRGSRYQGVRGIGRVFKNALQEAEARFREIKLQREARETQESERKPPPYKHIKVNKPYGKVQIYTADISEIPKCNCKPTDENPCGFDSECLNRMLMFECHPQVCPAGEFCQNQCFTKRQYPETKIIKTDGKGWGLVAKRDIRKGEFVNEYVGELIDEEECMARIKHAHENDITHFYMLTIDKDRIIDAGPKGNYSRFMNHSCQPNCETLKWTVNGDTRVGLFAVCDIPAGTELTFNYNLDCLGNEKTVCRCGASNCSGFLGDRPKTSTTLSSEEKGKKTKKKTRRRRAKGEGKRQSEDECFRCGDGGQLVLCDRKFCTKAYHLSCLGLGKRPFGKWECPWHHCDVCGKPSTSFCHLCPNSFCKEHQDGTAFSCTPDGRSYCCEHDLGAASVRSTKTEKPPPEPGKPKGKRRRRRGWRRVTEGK

[3] = target: MAP kinase-activated protein kinase 2 (Homo sapiens, UniProt P49137); format: functional;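 also: measured as one member of a kinome-wide kinase panel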
[4] = target: Protein kinase C gamma type (Homo sapiens, UniProt P05129); format: functional
[5] = target: Calcium/calmodulin-dependent protein kinase type II subunit gamma (Homo sapiens, UniProt Q13555); format: functional
Calcium/calmodulin-dependent protein kinase type II subunit gamma, sequence (Q13555 whole entry): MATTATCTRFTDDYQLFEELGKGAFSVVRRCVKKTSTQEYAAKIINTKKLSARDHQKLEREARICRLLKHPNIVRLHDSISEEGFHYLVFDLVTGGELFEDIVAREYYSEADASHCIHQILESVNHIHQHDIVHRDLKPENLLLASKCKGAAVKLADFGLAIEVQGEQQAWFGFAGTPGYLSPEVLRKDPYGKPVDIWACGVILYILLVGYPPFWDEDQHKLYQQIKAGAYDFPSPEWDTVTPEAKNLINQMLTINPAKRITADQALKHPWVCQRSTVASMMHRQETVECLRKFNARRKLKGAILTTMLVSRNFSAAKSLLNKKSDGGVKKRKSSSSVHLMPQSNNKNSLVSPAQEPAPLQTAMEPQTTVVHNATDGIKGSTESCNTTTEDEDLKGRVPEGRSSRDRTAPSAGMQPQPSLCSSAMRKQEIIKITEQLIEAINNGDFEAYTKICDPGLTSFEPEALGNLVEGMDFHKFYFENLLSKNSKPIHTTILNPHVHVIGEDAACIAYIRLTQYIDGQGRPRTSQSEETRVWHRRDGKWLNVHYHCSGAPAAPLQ

[6] = target: Proto-oncogene tyrosine-protein kinase Src (Homo sapiens, UniProt P12931); format: functional;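 also: SRC entry within a kinome-wide kinase profiling panel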
Proto-oncogene tyrosine-protein kinase Src, sequence (P12931 2-536 limits assumed): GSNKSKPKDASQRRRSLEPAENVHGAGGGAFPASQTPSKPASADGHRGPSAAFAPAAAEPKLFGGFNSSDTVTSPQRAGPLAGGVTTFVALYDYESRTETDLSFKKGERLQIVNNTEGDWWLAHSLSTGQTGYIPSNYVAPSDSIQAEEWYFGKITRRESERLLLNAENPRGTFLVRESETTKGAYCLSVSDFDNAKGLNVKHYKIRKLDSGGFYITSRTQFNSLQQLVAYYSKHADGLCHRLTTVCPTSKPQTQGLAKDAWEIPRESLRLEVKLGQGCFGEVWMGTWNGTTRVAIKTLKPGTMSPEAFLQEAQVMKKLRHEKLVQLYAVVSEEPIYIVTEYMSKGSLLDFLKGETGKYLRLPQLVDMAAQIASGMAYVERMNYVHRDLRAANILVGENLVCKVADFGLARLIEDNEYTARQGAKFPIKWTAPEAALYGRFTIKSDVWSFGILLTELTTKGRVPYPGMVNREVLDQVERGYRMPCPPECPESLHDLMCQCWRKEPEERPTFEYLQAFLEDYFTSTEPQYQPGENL

[7] = target: Tyrosine-protein kinase FRK (Homo sapiens, UniProt P42685); format: functional;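 also: FRK tested as one member of a kinome panel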
[8] = target: Lymphokine-activated killer T-cell-originated protein kinase (Homo sapiens, UniProt Q96KB5); format: functional;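 also: value comes from a kinase panel screen in which TOPK was one of the panel members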
Lymphokine-activated killer T-cell-originated protein kinase, sequence (Q96KB5 whole entry): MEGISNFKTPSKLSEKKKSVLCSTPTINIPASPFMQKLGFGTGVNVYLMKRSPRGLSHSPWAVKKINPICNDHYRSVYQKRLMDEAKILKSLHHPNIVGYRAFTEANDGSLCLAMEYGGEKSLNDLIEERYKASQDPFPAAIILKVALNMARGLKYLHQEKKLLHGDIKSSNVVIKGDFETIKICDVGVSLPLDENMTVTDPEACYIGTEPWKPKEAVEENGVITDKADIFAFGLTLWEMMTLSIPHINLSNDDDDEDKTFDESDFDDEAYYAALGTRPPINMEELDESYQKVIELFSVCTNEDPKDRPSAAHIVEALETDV

[9] = target: Mitogen-activated protein kinase kinase kinase 20 (Homo sapiens, UniProt Q9NYL2); format: functional
[10] = target: Serine/threonine-protein kinase pim-2 (Homo sapiens, UniProt Q9P1W9); format: functional;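 also: value comes from a broad kinase panel profiling study in which PIM2 was one of the panel members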
Serine/threonine-protein kinase pim-2, sequence (Q9P1W9 whole entry): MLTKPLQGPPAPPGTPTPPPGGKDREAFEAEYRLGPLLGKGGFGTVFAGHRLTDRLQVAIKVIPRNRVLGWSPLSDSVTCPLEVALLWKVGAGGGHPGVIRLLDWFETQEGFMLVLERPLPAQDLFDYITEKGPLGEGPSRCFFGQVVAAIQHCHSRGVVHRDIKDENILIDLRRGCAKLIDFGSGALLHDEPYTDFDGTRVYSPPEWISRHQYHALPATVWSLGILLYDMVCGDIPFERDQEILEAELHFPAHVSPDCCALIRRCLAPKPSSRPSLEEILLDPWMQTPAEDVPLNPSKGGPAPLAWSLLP

[11] = target: MAP/microtubule affinity-regulating kinase 3 (Homo sapiens, UniProt P27448); format: functional;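 also: MARK3 affinity measured as one member of a kinome panel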
[12] = target: Casein kinase II subunit alpha (Homo sapiens, UniProt P68400); format: functional
[13] = target: Protein kinase C iota type (Homo sapiens, UniProt P41743); format: functional;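 also: measured within a kinome-wide kinase panel, PRKCI as panel member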
Protein kinase C iota type, sequence (P41743 whole entry): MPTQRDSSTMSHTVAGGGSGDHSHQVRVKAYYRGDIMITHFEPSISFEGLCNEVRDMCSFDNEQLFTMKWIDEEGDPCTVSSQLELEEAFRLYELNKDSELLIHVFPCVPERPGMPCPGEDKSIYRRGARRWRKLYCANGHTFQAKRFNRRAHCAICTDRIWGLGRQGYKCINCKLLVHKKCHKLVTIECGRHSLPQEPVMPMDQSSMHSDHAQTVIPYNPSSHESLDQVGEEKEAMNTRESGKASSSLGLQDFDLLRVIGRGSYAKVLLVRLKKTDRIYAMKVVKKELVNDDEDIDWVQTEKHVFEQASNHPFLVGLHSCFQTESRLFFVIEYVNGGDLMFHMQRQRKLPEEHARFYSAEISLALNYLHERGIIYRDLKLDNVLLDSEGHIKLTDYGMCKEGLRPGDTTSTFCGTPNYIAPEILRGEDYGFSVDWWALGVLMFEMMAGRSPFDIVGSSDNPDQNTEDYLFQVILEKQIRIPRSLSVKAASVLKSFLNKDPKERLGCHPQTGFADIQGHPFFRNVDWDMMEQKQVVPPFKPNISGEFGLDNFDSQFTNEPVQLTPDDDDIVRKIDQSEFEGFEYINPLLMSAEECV

[14] = target: Vascular endothelial growth factor receptor 1 (Homo sapiens, UniProt P17948); format: functional;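 also: measured within a kinome-wide profiling panel, FLT1 as the panel member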
Vascular endothelial growth factor receptor 1, sequence (P17948 whole entry): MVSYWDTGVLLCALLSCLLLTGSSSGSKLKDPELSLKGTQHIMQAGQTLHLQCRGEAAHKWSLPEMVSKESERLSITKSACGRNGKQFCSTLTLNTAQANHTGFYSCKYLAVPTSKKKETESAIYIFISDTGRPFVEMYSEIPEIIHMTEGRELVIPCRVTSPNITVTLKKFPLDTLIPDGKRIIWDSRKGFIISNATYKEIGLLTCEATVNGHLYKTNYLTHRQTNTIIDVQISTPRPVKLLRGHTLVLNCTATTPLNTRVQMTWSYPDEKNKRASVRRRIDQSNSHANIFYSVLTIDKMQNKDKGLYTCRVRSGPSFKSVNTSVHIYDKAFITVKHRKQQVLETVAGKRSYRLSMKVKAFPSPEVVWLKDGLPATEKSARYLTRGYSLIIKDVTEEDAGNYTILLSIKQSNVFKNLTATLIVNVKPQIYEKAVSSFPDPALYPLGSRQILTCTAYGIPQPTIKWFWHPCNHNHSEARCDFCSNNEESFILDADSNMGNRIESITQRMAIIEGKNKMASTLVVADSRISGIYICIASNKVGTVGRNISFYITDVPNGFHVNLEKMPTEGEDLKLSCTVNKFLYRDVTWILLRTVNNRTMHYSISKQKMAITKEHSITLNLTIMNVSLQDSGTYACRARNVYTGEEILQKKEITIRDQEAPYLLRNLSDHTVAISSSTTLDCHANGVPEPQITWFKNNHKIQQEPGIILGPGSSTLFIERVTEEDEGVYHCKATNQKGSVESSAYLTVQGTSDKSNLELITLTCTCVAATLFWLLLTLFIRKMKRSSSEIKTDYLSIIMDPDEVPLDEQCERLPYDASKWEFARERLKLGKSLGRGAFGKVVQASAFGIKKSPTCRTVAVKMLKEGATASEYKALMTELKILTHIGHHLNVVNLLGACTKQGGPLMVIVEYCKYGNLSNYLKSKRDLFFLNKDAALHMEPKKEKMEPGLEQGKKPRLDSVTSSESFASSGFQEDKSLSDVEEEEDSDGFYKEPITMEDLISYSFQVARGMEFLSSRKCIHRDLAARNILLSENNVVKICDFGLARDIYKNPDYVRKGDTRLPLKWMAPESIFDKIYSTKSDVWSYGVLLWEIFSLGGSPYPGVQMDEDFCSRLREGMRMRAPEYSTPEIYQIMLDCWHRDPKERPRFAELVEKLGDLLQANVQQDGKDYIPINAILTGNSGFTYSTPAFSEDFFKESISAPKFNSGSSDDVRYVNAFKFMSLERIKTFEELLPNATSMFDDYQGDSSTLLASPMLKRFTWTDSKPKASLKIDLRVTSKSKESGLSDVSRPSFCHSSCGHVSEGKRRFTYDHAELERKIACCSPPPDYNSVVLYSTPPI

[15] = target: STE20-like serine/threonine-protein kinase (Homo sapiens, UniProt Q9H2G2); format: functional
[16] = target: BDNF/NT-3 growth factors receptor (Homo sapiens, UniProt Q16620); format: functional;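 also: NTRK2 measured as one member of a broad kinome-wide kinase profiling panel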
[17] = target: Dual specificity protein kinase CLK2 (Homo sapiens, UniProt P49760); format: functional
Dual specificity protein kinase CLK2, sequence (P49760 whole entry): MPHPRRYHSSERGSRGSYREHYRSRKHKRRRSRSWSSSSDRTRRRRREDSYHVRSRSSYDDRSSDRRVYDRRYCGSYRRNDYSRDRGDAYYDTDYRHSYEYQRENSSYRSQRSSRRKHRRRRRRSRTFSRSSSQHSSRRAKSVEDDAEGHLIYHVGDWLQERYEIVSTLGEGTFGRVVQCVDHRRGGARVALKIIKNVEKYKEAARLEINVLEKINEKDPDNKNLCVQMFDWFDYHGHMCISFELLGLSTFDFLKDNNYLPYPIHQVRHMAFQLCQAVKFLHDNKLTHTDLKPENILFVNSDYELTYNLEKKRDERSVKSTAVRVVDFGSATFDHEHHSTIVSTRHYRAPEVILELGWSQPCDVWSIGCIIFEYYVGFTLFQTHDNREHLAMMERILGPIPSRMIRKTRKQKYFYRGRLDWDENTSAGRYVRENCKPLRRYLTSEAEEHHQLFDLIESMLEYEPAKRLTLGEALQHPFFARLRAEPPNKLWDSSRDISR

[18] = target: Fibroblast growth factor receptor 3 (Homo sapiens, UniProt P22607); format: functional
[19] = target: Serine/threonine-protein kinase MRCK alpha (Homo sapiens, UniProt Q5VT25); format: functional

Row | SMILES | EC50 [1] | AC50 [2] | Ki [3] | Ki [4] | Ki [5] | Ki [6] | Ki [7] | Ki [8] | Ki [9] | Ki [10] | Ki [11] | Ki [12] | Ki [13] | Ki [14] | Ki [15] | Ki [16] | Ki [17] | Ki [18] | Ki [19]
1 | COC(=O)CCS(=O)(=O)c1nc(-c2ccccc2)cc(C(F)(F)F)n1 | 9590 nM (inconclusive) |  |  |  |  |  |  |  |  |  |  |  |  |  |  |  |  |  | 
2 | O=C(O)c1ccc(NC2=C(Cl)C(=O)c3ccccc3C2=O)cc1 | 6240 nM (active) |  |  |  |  |  |  |  |  |  |  |  |  |  |  |  |  |  | 
3 | CCOC(=O)c1c2c(n(Cc3ccccc3)c1C)C(=O)C(=O)c1ccccc1-2 |  | 263 nM (active) |  |  |  |  |  |  |  |  |  |  |  |  |  |  |  |  | 
4 | Cc1ccc2nccc(NC(=O)Nc3cccc(C(F)(F)F)n3)c2c1 |  |  | > 7940 nM (inactive) | 5010 nM (active) | > 6310 nM (inactive) | > 2000 nM (inactive) | 100 nM (active) | 2000 nM (active) | > 7940 nM (inactive) | > 1580 nM (inactive) | > 6310 nM (inactive) | 251 nM (active) | > 5010 nM (inactive) | > 2000 nM (inactive) | > 10000 nM (inactive) | > 5010 nM (inactive) | > 2000 nM (inactive) | > 2000 nM (inactive) | > 10000 nM (inactive)
5 | Cc1c(/N=C2\C=CC(=O)c3ccccc32)c(=O)n(-c2ccccc2)n1C |  | 2430 nM (active) |  |  |  |  |  |  |  |  |  |  |  |  |  |  |  |  | 
6 | COc1cc2c(cc1F)C(c1ccccc1Cl)=Nc1c(n[nH]c1C)N2 [RG-1530] |  |  | > 7940 nM (inactive) | 3980 nM (active) | > 6310 nM (inactive) | 126 nM (active) | 79.4 nM (active) | > 10000 nM (inactive) | > 7940 nM (inactive) | > 1580 nM (inactive) | > 2510 nM (inactive) | 2510 nM (active) | > 5010 nM (inactive) | 50.1 nM (active) | 39.8 nM (active) | 100 nM (active) | 2510 nM (active) | 25.1 nM (active) | > 10000 nM (inactive)

Source: ChEMBL document CHEMBL1201862, “PubChem BioAssay data set” (2004)
